How the values were obtained:
[1] = tested on: murine uterine epithelial cells; assay: Effect of rIFNγ and rTGFβ on GM-CSF production in cultured uterine epithelial cells (Example 2); type: cell-based, mouse; conditions: rTGFβ 5 ng/ml; DMEM +penicillin; two experiments
Protocol: Uterine Epithelial Cell Cultures. Uterine epithelial cells prepared as previously described (Robertson et al., Biol Reprod 46:1069-1079 (1992)) were pooled from 4-6 estrous C57B1/6 or C57B1/6×Balb/c F1 mice and plated in 1 ml culture wells (Nunc, Roskilde, Germany) at 1-2×10^5 cells per ml in 500 μl of Dulbecco's modified Eagles medium containing 10% FCS, […] streptomycin sulphate and […] benzyl penicillin (DMEM +penicillin). After 4 h incubation at 37° C. in 5% CO2 to allow cell adherence, a further 500 μl of DMEM +penicillin, or DMEM +penicillin plus recombinant mouse IFNγ (rIFNγ) and/or recombinant human TGFβ1 (rTGFβ), were added. In some experiments, penicillin-free DMEM (DMEM −penicillin) was used throughout. Culture supernatants were collected and replaced with fresh medium at 16 hours, then collected again 24 hours later, at which time GM-CSF content was determined and adherent cells were quantified as previously described (Robertson et al., Biol Reprod 46:1069-1079 (1992)). All treatments were performed in duplicate or triplicate. rTGFβ and rIFNγ were obtained from R&D Systems, UK.
GM-CSF bioassay: GM-CSF was assayed using the GM-CSF dependant cell line FD 5/12, essentially as previously described (Robertson et al., Biol Reprod 46:1069-1079 (1992)). Cell proliferation was determined by pulsing with 1 μCi of [^3H]-thymidine per well for the last 6 h of the assay. The minimal detectable amount of GM-CSF was 20 pg/ml. The identity of the bioactivity in uterine epithelial cell cultures was confirmed using a goat polyclonal antibody to murine GM-CSF (DNAX, Palo Alto, Calif.) as previously described (Robertson et al., Biol Reprod 46:1069-1079 (1992)). GM-CSF production is expressed as ng GM-CSF/10^5 cells/24 h. Recombinant mouse GM-CSF was obtained from R&D Systems.

mice = assay: Effect of IFN-γ treatment on pregnancy outcome in mice (Example 8); type: in vivo; conditions: implantation rate, viable versus resorbing fetuses, fetal and placental weight on day 18
Protocol: Mice are housed under specific pathogen-free conditions at the University of Adelaide Medical School Animal House on a 12:12 light-dark cycle, and administered food and water ad libitum. Adult Balb/c×C57B1/6 F1 females (7-10 weeks old) are synchronised into estrus by caging in close proximity to males. Estrus is identified on the basis of presence of cornified epithelial cells in vaginal smears prepared at 0900-1000 h daily and examined by phase contrast microscopy. On the day of estrus (day 0) females are caged with proven fertile Balb/k males for natural mating. The day of sighting a vaginal plug is nominated day 1 of pregnancy.
Mice are randomly allocated to one of four groups and treated as follows: Group 1 (100 ng IFN-γ) mice receive three intraperitoneal injections of […] recombinant mouse IFN-γ (rmIFN-γ, R&D Systems) in 200 μl PBS containing 1% bovine serum albumin (PBS-BSA) at 1700 h on day 0, at 1000 h on day 1 and 1700hon day 1.
Group 2 (250 ng IFN-γ) receive three injections of 250 ng rmIFN-γ according to the same time schedule.
Group 3 (control) receive three injections of PBS-BSA instead of IFN-γ according to the same time schedule.
Group 4 (comparison) Mice are mated but otherwise remain untreated.
Twenty mice per group are used to ensure statistical significance in treatment effects.
Alternatively, a transcervical delivery route for IFN-γ is used. Treatments are delivered directly into the uterine lumen with the aid of a tom-cat catheter (Sovereign, St Louis Mo.). In mated animals this requires removal of vaginal plugs using forceps to allow transcervical access. Mice are randomly allocated to one of four groups and treated as follows: the first group (100 ng IFN-γ) mice receive three transcervical injections of […] recombinant mouse IFN-γ (rmIFN-γ, R&D Systems) in 200 μl PBS containing 1% bovine serum albumin (PBS-BSA) at 1700 h on day 0, at 1000 h on day 1 and 1700 h on day 1. The second group (25 ng IFN-γ) receive three injections of 25 ng rmIFN-γ according to the same time schedule. The third group (control) receive three injections of PBS-BSA instead of IFN-γ according to the same time schedule. For comparison, a fourth group of mice are mated but otherwise would remain untreated. Twenty mice per group are used to ensure statistical significance in treatment effects.
Pregnant females are sacrificed by cervical dislocation at 1000 h -1200 h on day 18 of gestation. The intact uterus of each female is removed and total, viable and resorbing implantation sites counted. Each viable fetus is dissected from the amniotic sac and umbilical cord, and fetuses and placentae weighed. Placental tissues are fixed in paraformaldehyde and processed for histological staining of paraffin sections, using Masson's trichrome stain.

[2] = tested on: human cervical epithelial cells; assay: Effect of IFN-γ and TGFβ on GM-CSF synthesis in human cervical epithelial cells (Example 4); type: cell-based; conditions: 0.5, 5.0 or 50 ng/ml TGFβ1 + 5.0 ng/ml IFN-γ; dose-responsive; 12 h
Protocol: Human cervical epithelial cells were cultured using a modification of the technique described by Rheinwald et al., Cell 1975 3: 33143 (1975). Cervical biopsies were obtained from consenting women undergoing hysterectomy for non-malignant gynaecological indications. All the women were pre-menopausal, but no distinction was made regarding the stage of their menstrual cycle at the time of surgery. The cervical biopsies were placed in ice-cold Hank's balanced salt solution for transport to the laboratory, washed twice in antibiotic-containing medium, and incubated overnight at 4° C. in Dulbecco's modified Eagle's medium (DMEM) containing 5 U dispase (Boehringer Mannheim). Large sheets of keratinocytes were mechanically stripped from the biopsy using sterile forceps after a subsequent 1 h incubation at room temperature. Disaggregation into single cells was facilitated by incubation in DMEM/0.25% trypsin/0.05% collagenase for 30 minutes at 37° C., and repeated aspiration using a needle and syringe. […]
Supernatant was collected 12 hours later and assayed for GM-CSF activity using a commercial human GM-CSF specific ELISA (R & D Systems) according to the manufacturer's instructions. The GM-CSF content of post-treatment supernatants were normalised to the GM-CSF content of corresponding 12 h (baseline) supernatants and expressed as a percentage of control values.

## rhTGFβ1: recombinant human transforming growth factor β1 (R&D Systems)
[1]
  increase in GM-CSF production: approximately 6 fold
mice
  effect on the detrimental effects of IFN-γ on pregnancy outcome: reverses the detrimental effects of IFN-γ
[2]
  effect of TGFβ on the inhibitory effect of IFN-γ on GM-CSF synthesis: counteract the inhibitory effect

— patent US20050272636A1, “Treatment and diagnosis of a reproductive disorder by measuring or inhibiting interferon-gamma” (Adelaide Research & Innovation Pty Ltd., priority 2002, published 2005)
